Assay results reported in patent US20250388572A1, “USE OF HPK1 INHIBITOR IN PREVENTION AND/OR TREATMENT OF HUMAN PATHOGEN INFECTION” (priority 2022, published 2025).
Read-outs that look alike come from different tables or passages of the source.

Columns and labels:
[1] = beagle, dog, microsomes, 1 h, 10 µM
Description: (§1) The procedure for identifying microsomal metabolites is as follows:
(§2) The compounds (test compounds and their numbers are shown below, among which compounds A1 and B1 are prepared by referring to the relevant method disclosed in CN110396087A) were weighed and dissolved into dimethyl sulfoxide to prepare a 20 mM solution. The compound stock solution was diluted with 50% acetonitrile in water (v/v) to a concentration of 1.0 mM as a working solution. Liver microsomes (20 mg/mL) were diluted to 1.27 mg/mL with 50 mM dipotassium hydrogen phosphate buffer as a liver microsome working solution. Reduced coenzyme was weighed and dissolved in 3307 μL of phosphate buffer (50 mM) to 5.0 mM as a reduced coenzyme working solution. For T=60 minutes samples, 4 μL of test working solution (1.0 mM) was added, followed by 316 μL of liver microsome working solution (1.27 mg/mL), and finally, 80 μL of reduced coenzyme working solution was added to start the reaction. For T=0 minutes samples, 316 μL of liver microsome working solution (1.27 mg/mL) was added and then 80 μL of reduced coenzyme working solution was added to start the reaction, without test solution incubation. After incubation at 37° C. for 60 minutes, 1200 μL of stop solution was added to stop the enzyme reaction. For T=0 minute samples, 4 μL of test working solution (1.0 mM) was added. The sample plate was placed on a vortexer and vortexed at 600 rpm for 5 minutes. Then, the sample plate was centrifuged at 4000 rpm for 10 minutes. The supernatant was removed, mixed, and dried at room temperature with nitrogen. The residue dried with nitrogen was redissolved in 300 μL of 10% acetonitrile (0.1% FA) solvent and then centrifuged at 4000 rpm for 15 minutes. The supernatant was transferred to a detection plate for mass spectrometry. Mass spectrometry was performed using LC/Q-Exactive plus.
(§3) 7-Ethoxycoumarin (10 μM) was selected as a positive control compound and operated in parallel with the compounds.

[2] = cynomolgus macaque, microsomes, 1 h, 10 µM
Description: as §1, §2, §3

[3] = human, microsomes, 1 h, 10 µM
Description: as §1, §2, §3

hPBMCs = test: Pharmacodynamic evaluation for hPBMCs (IL-2 by ELISA); type: cell-based, human; details: 1 uM, 24 hours, CD3/CD28-activated hPBMCs
Description: The hPBMCs used in this experiment were purchased from Shanghai AoNeng Biotechnology Co., Ltd. CD3 antibody was pre-coated onto a 96-well plate for future use. Cells were seeded into the 96-well plate at 2×10^6/ml, with 200 μL per well. CD28 antibody was added for activation, and Compound A2 was added at a final concentration of 1 μM. The supernatant was collected after 24 hours of treatment. IL-2 levels were determined by ELISA, and the effects of A2 and CD3/CD28 on the activation of hPBMCs were compared.

SARS-Cov-2 virus = test: Pharmacodynamic evaluation for Covid 19 in hamsters; type: in vivo, Syrian golden hamsters
Description: A total of 20 wild-type Syrian golden hamsters, aged 6-8 weeks, with half male and half female, were randomly divided into two groups: control group (n=4), and therapy group consisting of 5 mg/kg and 20 mg/kg groups, with 8 mice per group. Starting from day 0 (DO), the hamsters in the therapy group were given A2 orally at a total daily dose of 5 mg/kg or 20 mg/kg, and the control group was given an equal amount of blank drug orally daily. Meanwhile, on day 0, all hamsters were anesthetized and then inoculated intranasally with 100 uL of 1.375×10^6 PFU/mL SARS-Cov-2 virus. Clinical manifestations and body weight were monitored daily. At the end of the study, tissues (e.g., lungs) were collected and weighed, and virus RNA and infectious virus were then quantified.

H1N1 (PR8 strain) = test: Pharmacodynamic evaluation for H1N1 in mice; type: in vivo, C57BL/6 mice; details: 3 mg/kg, oral
Description: Six to eight-week-old female SPFC 57BL/6 mice (VitalRiver Laboratory Animal Technology Co., Ltd., SCXK (Beijing) 2016-0006, Beijing version) were infected with H1N1 (PR8 strain) and stimulated intranasally with 1×10^4 TCID50 virus nose drops. Mice were randomly divided into a therapy group and a control group. The therapy group was given 3 mg/kg of A2 orally, and the control group was given an equal amount of blank drug orally. The weight loss of mice in all groups was monitored daily.

MHV-A59 virus = test: Pharmacodynamic evaluation for MHV, high-dose virus group; type: in vivo, C57BL/6 mice; details: 10 mg/kg daily, 2×10^6 PFU; for survival rate: all control mice died
Description: The effect of A2 on the prevention and treatment of MHV was investigated.
High-dose virus group: 21 male SPF grade C57BL/6 mice, aged 4 weeks, were divided into three groups: control group, precaution group and therapy group. These mice were anesthetized and then injected intrahepatically (i.h.) with 100 μL of DMEM containing 2×10^6 PFU MHV-A59 virus. The precaution group was given the first dose of A2 at 10 mg/kg 24 hours before the challenge, and the therapy group was given the first dose of A2 at 10 mg/kg 24 hours after the challenge, followed by daily continuous administration, both the precaution group and the therapy group being given a daily dose of 10 mg/kg. The weight change, clinical symptoms of disease and mortality of infected mice were monitored daily.

[2H]C([2H])([2H])N1CCC(n2cc(-c3cnc(N)c(OCc4cccc(C#CC(C)(C)O)c4)c3)cn2)CC1 [Compound A2, 4-(3-(((2-amino-5-(1-(1-trideuteriomethylpiperidin-4-yl)-1H-pyrazol-4-yl)pyridin-3-yl)oxy)methyl)phenyl)-2-methylbut-3-yn-2-ol]
remaining percentage of the parent cores after 60 min [1]: 7.0%
remaining percentage of the parent cores after 60 min [2]: 29.6%
remaining percentage of the parent cores after 60 min [3]: 83.9%
IL-2 concentration ratio (stimulated by A2−unstimulated)/(stimulated−unstimulated) (hPBMCs): 5.89 fold
body weight of SARS-Cov-2 infected hamsters (SARS-Cov-2 virus; 20 mg/kg daily, oral): gained weight at a much faster rate
lung weight normalized to total body weight (SARS-Cov-2 virus; all A2 dose groups (5 mg/kg and 20 mg/kg daily, oral)): decreased
survival rate of H1N1-infected mice (H1N1 (PR8 strain)): significantly higher than that of the blank control group
survival rate (MHV-A59 virus; precaution group): 42.86%
average body weight (MHV-A59 virus; precaution group, day 1): 13.39 g
average body weight (MHV-A59 virus; precaution group, day 8): 16.34 g
survival rate (MHV-A59 virus; therapy group): 28.57%
average body weight (MHV-A59 virus; therapy group, day 1): 12.48 g
average body weight (MHV-A59 virus; therapy group, day 8): 11.39 g
